Like-named read-outs stand apart in the source and are kept apart here.
Columns and labels:
[1] = system: Trichophyton interdigitale CCM 8377, ATCC 9533; test: Antifungal microdilution broth MIC, TI; conditions: for MIC: Trichophyton interdigitale
[2] = system: Staphylococcus aureus CCM 4223, ATCC 29213; test: Antibacterial microdilution broth MIC, SA; assay type: cell-based; conditions: for MIC: Staphylococcus aureus
panel of bacteria = test: Antibacterial screening, whole panel; assay type: cell-based; conditions: whole bacterial panel
[3] = system: Mycobacterium tuberculosis H37Rv; test: Microplate Alamar Blue Assay MIC, Mtb H37Rv; assay type: cell-based; conditions: for MIC: Mycobacterium tuberculosis, H37RV
[4] = system: Mycolicibacterium smegmatis DSM 43465; test: Antimycobacterial microdilution broth MIC (resazurin), M. smegmatis; assay type: cell-based; conditions: DSM43465, read-out: MIC M. smegmatis
[5] = system: Aspergillus fumigatus ATCC 204305; test: Antifungal microdilution broth MIC, AF
[6] = system: Aspergillus flavus CCM 8363; test: Antifungal microdilution broth MIC, AFla
[7] = system: M. avium ssp. avium CNCTC My 80/72; test: Microplate Alamar Blue Assay MIC, M. avium; assay type: cell-based; conditions: for MIC: Mycobacterium avium
[8] = system: Lichtheimia corymbifera CCM 8077; test: Antifungal microdilution broth MIC, LC
[9] = system: Candida tropicalis CCM 8264, ATCC 750; test: Antifungal microdilution broth MIC, CT
[10] = system: Candida krusei CCM 8271, ATCC 6258; test: Antifungal microdilution broth MIC, CK; conditions: Pichia kudriavzevii
[11] = system: M. kansasii CNCTC My 235/80; test: Microplate Alamar Blue Assay MIC, M. kansasii; assay type: cell-based; conditions: for MIC: Mycobacterium kansasii
[12] = system: Mycobacterium tuberculosis H37Ra; test: Antimycobacterial microdilution broth MIC (resazurin), Mtb H37Ra; assay type: cell-based; conditions: for MIC: Mycobacterium tuberculosis, H37RA, read-out: MIC Mtb H37Ra; for SI (selectivity index): SI = HepG2 IC50 (μM)/MIC MtbH37Ra (μM), calculated for compounds with MIC ≤ 31.25 μg/mL
[13] = system: Pseudomonas aeruginosa CCM 3955, ATCC 27853; test: Antibacterial microdilution broth MIC, PA; assay type: cell-based
panel of fungi = test: Antifungal screening, whole panel; assay type: cell-based; conditions: whole fungal panel
Protocol: The antifungal activity was evaluated by
spectrophotometric visual detection** spectrophotometric detection**
Candida tropicalis 1 1 2 >16
Aspergillus fumigatus 4 4 0.25 1
Aspergillus flavus CCM 4 4 2 >16
interdigitale CCM 1 1 1 >16
control. […] Measured on a […]

[14] = system: Escherichia coli CCM 3954, ATCC 25922; test: Antibacterial microdilution broth MIC, EC; assay type: cell-based
[15] = system: Staphylococcus aureus subsp. aureus CCM 4750, ATCC 43300 (MRSA); test: Antibacterial microdilution broth MIC, MRSA; assay type: cell-based; conditions: for MIC: Staphylococcus aureus
[16] = system: Staphylococcus epidermidis CCM 4418, ATCC 12228; test: Antibacterial microdilution broth MIC, SE; assay type: cell-based
[17] = system: Candida albicans CCM 8320, ATCC 24433; test: Antifungal microdilution broth MIC, CA
[18] = system: Candida parapsilosis CCM 8260, ATCC 22019; test: Antifungal microdilution broth MIC, CP; conditions: Lodderomyces parapsilosis
[19] = system: Klebsiella pneumoniae CCM 4415, ATCC 10031; test: Antibacterial microdilution broth MIC, KP
[20] = system: Mycolicibacterium aurum DSM 43999; test: Antimycobacterial microdilution broth MIC (resazurin), M. aurum; assay type: cell-based; conditions: DSM43999, read-out: MIC M. aurum
HepG2 cell line = test: Cytotoxicity CellTiter 96, HepG2; assay type: cell-based, human; conditions: Homo sapiens, HepG2, 24 h, 24 h incubation; ^c compound precipitated in the testing medium; ^d over the limit of tested concentrations
[21] = system: Acinetobacter baumannii DSM 30007, ATCC 19606; test: Antibacterial microdilution broth MIC, ACI; assay type: cell-based
[22] = system: Enterococcus faecalis CCM 4224, ATCC 29212; test: Antibacterial microdilution broth MIC, EF; assay type: cell-based
[23] = ATCC204305, 24 h, read-out: MIC AF 24h
[24] = ATCC204305, 48 h, read-out: MIC AF 48h
[25] = CCM8363, 24 h, read-out: MIC AFla 24h
[26] = CCM8363, 48 h, read-out: MIC AFla 48h
[27] = CCM8077, 24 h, read-out: MIC LC 24h
[28] = CCM8077, 48 h, read-out: MIC LC 48h

O=C(Cc1ccc(Cl)cc1)Nc1ccc(Cl)cn1 [Compound 20]
6.25 µg/mL: MIC [3]
7.81 µg/mL: MIC [12]
> 500 µM: MIC ([1]; 72 h, read-out: MIC TI 72h) | MIC ([1]; 120 h, read-out: MIC TI 120h) | MIC ([2]; 24 h, read-out: MIC SA 24h) | MIC ([2]; 48 h, read-out: MIC SA 48h) | MIC [5, 23] | MIC [5, 24] | MIC [6, 25] | MIC [6, 26] | MIC [8, 27] | MIC [8, 28] | MIC ([9]; 24 h, read-out: MIC CT 24h) | MIC ([9]; 48 h, read-out: MIC CT 48h) | MIC ([10]; 24 h, read-out: MIC CK 24h) | MIC ([10]; 48 h, read-out: MIC CK 48h) | MIC ([13]; 24 h, read-out: MIC PA 24h) | MIC ([13]; 48 h, read-out: MIC PA 48h) | MIC ([14]; 24 h, read-out: MIC EC 24h) | MIC ([14]; 48 h, read-out: MIC EC 48h) | MIC ([15]; 24 h, read-out: MIC MRSA 24h) | MIC ([15]; 48 h, read-out: MIC MRSA 48h) | MIC ([16]; 24 h, read-out: MIC SE 24h) | MIC ([16]; 48 h, read-out: MIC SE 48h) | MIC ([17]; 24 h, read-out: MIC CA 24h) | MIC ([17]; 48 h, read-out: MIC CA 48h) | MIC ([18]; 24 h, read-out: MIC CP 24h) | MIC ([18]; 48 h, read-out: MIC CP 48h) | MIC KP 24h [19] | MIC KP 48h [19] | MIC ([21]; 24 h, read-out: MIC ACI 24h) | MIC ([21]; 48 h, read-out: MIC ACI 48h) | MIC ([22]; 24 h, read-out: MIC EF 24h) | MIC ([22]; 48 h, read-out: MIC EF 48h)
> 100 µg/mL: MIC [7] | MIC [11]
27.8 µM: MIC ([12]; Calculated from MIC (μg/mL))
500 µg/mL: MIC [4] | MIC [20]
48.5 µM: IC50 (HepG2 cell line)
None: Antibacterial activity (panel of bacteria) | Antifungal activity (panel of fungi)
1.7: SI (selectivity index) [12]

O=C(Cc1ccc(Cl)cc1)Nc1cccc(Cl)n1 [Compound 21]
250 μM on SA, 250 μM on MRSA: Antibacterial activity on SA ([2]; Table 2) | Antibacterial activity on MRSA ([15]; Table 2)
500 µM: MIC ([15]; 48 h, read-out: MIC MRSA 48h)
7.81 µg/mL: MIC [12]
6.25 µg/mL: MIC [3] | MIC [7]
additional activity: MIC M. avium [7] | MIC M. kansasii [11]
62.5 µM: MIC ([1]; 72 h, read-out: MIC TI 72h)
2.9: SI (selectivity index) [12]
31.2 µg/mL: MIC [20]
250 µM: MIC ([2]; 24 h, read-out: MIC SA 24h) | MIC ([15]; 24 h, read-out: MIC MRSA 24h)
27.8 µM: MIC ([12]; Calculated from MIC (μg/mL))
125 µM: MIC ([1]; 120 h, read-out: MIC TI 120h)
25 µg/mL: MIC [11]
15.6 µg/mL: MIC [4]
62.5 μM on TI: Antifungal activity on TI ([1]; Table 2)
81.5 µM: IC50 (HepG2 cell line)
> 500 µM: MIC ([2]; 48 h, read-out: MIC SA 48h) | MIC [5, 23] | MIC [5, 24] | MIC [6, 25] | MIC [6, 26] | MIC [8, 27] | MIC [8, 28] | MIC ([9]; 24 h, read-out: MIC CT 24h) | MIC ([9]; 48 h, read-out: MIC CT 48h) | MIC ([10]; 24 h, read-out: MIC CK 24h) | MIC ([10]; 48 h, read-out: MIC CK 48h) | MIC ([13]; 24 h, read-out: MIC PA 24h) | MIC ([13]; 48 h, read-out: MIC PA 48h) | MIC ([14]; 24 h, read-out: MIC EC 24h) | MIC ([14]; 48 h, read-out: MIC EC 48h) | MIC ([16]; 24 h, read-out: MIC SE 24h) | MIC ([16]; 48 h, read-out: MIC SE 48h) | MIC ([17]; 24 h, read-out: MIC CA 24h) | MIC ([17]; 48 h, read-out: MIC CA 48h) | MIC ([18]; 24 h, read-out: MIC CP 24h) | MIC ([18]; 48 h, read-out: MIC CP 48h) | MIC KP 24h [19] | MIC KP 48h [19] | MIC ([21]; 24 h, read-out: MIC ACI 24h) | MIC ([21]; 48 h, read-out: MIC ACI 48h) | MIC ([22]; 24 h, read-out: MIC EF 24h) | MIC ([22]; 48 h, read-out: MIC EF 48h)

O=C(Cc1ccc(C(F)(F)F)cc1)Nc1cccc(Cl)n1 [Compound 30]
3.7: SI (selectivity index) [12]
> 500 µg/mL: MIC [4] | MIC [20]
24.8 µM: MIC ([12]; Calculated from MIC (μg/mL))
active: MIC M. avium [7]
7.81 µg/mL: MIC [12]
6.25 µg/mL: MIC [3] | MIC [7]
> 500 µM: MIC ([2]; 24 h, read-out: MIC SA 24h) | MIC ([2]; 48 h, read-out: MIC SA 48h) | MIC [5, 23] | MIC [5, 24] | MIC [6, 25] | MIC [6, 26] | MIC [8, 27] | MIC [8, 28] | MIC ([9]; 24 h, read-out: MIC CT 24h) | MIC ([9]; 48 h, read-out: MIC CT 48h) | MIC ([10]; 24 h, read-out: MIC CK 24h) | MIC ([10]; 48 h, read-out: MIC CK 48h) | MIC ([13]; 24 h, read-out: MIC PA 24h) | MIC ([13]; 48 h, read-out: MIC PA 48h) | MIC ([14]; 24 h, read-out: MIC EC 24h) | MIC ([14]; 48 h, read-out: MIC EC 48h) | MIC ([15]; 24 h, read-out: MIC MRSA 24h) | MIC ([15]; 48 h, read-out: MIC MRSA 48h) | MIC ([16]; 24 h, read-out: MIC SE 24h) | MIC ([16]; 48 h, read-out: MIC SE 48h) | MIC ([17]; 24 h, read-out: MIC CA 24h) | MIC ([17]; 48 h, read-out: MIC CA 48h) | MIC ([18]; 24 h, read-out: MIC CP 24h) | MIC ([18]; 48 h, read-out: MIC CP 48h) | MIC KP 24h [19] | MIC KP 48h [19] | MIC ([21]; 24 h, read-out: MIC ACI 24h) | MIC ([21]; 48 h, read-out: MIC ACI 48h) | MIC ([22]; 24 h, read-out: MIC EF 24h) | MIC ([22]; 48 h, read-out: MIC EF 48h)
500 µM: MIC ([1]; 72 h, read-out: MIC TI 72h) | MIC ([1]; 120 h, read-out: MIC TI 120h)
92.6 µM: IC50 (HepG2 cell line)
None: Antibacterial activity (panel of bacteria) | Antifungal activity (panel of fungi)
> 100 µg/mL: MIC [11]

NNC(=O)c1ccncc1 [INH, isoniazid, reference compound]
3.91 to 7.81 µg/mL: MIC [20]
3.13 to 12.5 µg/mL: MIC M. kansasii [11]
0.1 to 0.2 µg/mL: MIC Mtb H37Rv [3]
6.25 to 12.5 µg/mL: MIC M. avium [7]
0.9 to 1.8 µM: MIC ([12]; Calculated from MIC (μg/mL))
7.81 to 15.6 µg/mL: MIC [4]
0.125 to 0.25 µg/mL: MIC [12]

Reference: publication PMC11748363, “Antimicrobial and Antiproliferative Properties of 2‐Phenyl‐N‐(Pyridin‐2‐yl)acetamides” (Chemical Biology & Drug Design, 2025)
